Experimental data published in paper PMC9500755, “Albumin-Mediated Size Exclusion Chromatography: The Apparent Molecular Weight of PSMA Radioligands as Novel Parameter to Estimate Their Blood Clearance Kinetics” (Pharmaceuticals, 2022).
Values joined by “and” are separate entries in the source; they are usually repeats but may differ in a detail not shown here. Equal values may be shown once.

Assays:
[1] = biological target: T1, human serum albumin (HSA) (Homo sapiens, UniProt P02768); assay: Albumin-mediated size exclusion chromatography (AMSEC); type: in vitro ADME; conditions: for tR,AMSEC (retention time in AMSEC run): 177Lu-labeled ligand, mobile phase 700 µM HSA in PBS pH 7.4, Superdex 75 Increase, corrected for detector offset, normalized to column 1; for Retention factor k: fraction of time the radioligand is complexed to HSA during the AMSEC run, Equation (2); for MWapp,raw (raw apparent molecular weight): from tR,AMSEC by column calibration, 700 µM HSA in PBS pH 7.4; for MWapp,norm. (normalized apparent molecular weight): from tR,norm. by column calibration; for tR,norm. (normalized retention time): normalized with tR,blank, tR,HSA and tR,acetone, Equation (5)
T1 construct: purchased Biowest, Nuaillé, France
T1 sequence (P02768 25-609): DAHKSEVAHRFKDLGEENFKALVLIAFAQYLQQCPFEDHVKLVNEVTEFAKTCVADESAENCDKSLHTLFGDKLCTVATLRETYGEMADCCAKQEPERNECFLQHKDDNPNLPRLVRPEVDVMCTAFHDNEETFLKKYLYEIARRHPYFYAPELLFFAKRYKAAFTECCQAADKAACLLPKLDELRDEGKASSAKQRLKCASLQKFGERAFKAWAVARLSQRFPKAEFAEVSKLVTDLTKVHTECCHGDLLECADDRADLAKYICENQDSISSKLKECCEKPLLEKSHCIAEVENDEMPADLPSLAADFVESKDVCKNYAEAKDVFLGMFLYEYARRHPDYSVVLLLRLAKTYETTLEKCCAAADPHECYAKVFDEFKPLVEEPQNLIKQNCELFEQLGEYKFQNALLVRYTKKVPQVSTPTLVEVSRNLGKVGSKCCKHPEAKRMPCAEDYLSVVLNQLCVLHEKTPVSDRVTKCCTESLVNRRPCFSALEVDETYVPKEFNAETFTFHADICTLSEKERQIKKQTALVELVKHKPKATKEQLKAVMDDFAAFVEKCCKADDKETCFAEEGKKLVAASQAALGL
Description: All size exclusion chromatographic (SEC) experiments were carried out using the above-mentioned HPLC system equipped with a Superdex 75 Increase 10/300 GL gel filtration size exclusion column (fractionation range 70–3 kDa, GE Healthcare, Uppsala, Sweden). Eluents at room temperature, a constant flow rate of 0.8 mL/min, and an acquisition time of 35 min were generally applied. The column was calibrated as recommended by the manufacturer using a commercially available set of proteins (Gel Filtration LMW Calibration Kit, GE Healthcare, Buckinghamshire, UK). Retention times of calibration proteins and calculated calibration parameters are given in the Supplementary Materials (Table S3). UV signal detection occurred at 280 nm.
All retention times of radio signals were corrected for the offset between the UV-vis detector and radio-detector (Δt = 0.084 min). Throughout the development of the AMSEC method, three gel filtration columns of the same type were used for experiments (most data were acquired using column 1). As calculations were based on absolute empirical retention times that inherently differed slightly from column to column, all retention times determined on column 2 and column 3 were mathematically converted to an equivalent retention time on column 1 using the columns’ calibration parameters. A detailed description of these calculations is provided in the Supplementary Materials.
All numerical retention times explicitly given in running text or tables and plotted in diagrams are already corrected for the offset between UV-vis and radio-detector and, if initially determined on columns 2 or 3, converted to the equivalent retention time on column 1 (for detailed information, see Equations (S1) and (S2) and Table S1 in the Supplementary Materials).
AMSEC runs were executed with a solution of HSA (Biowest, Nuaillé, France) in PBS (pH 7.4) at physiological concentration (700 µM) as a mobile phase. Upon injection of approximately 1.0 MBq (5–10 µL) of a radioligand, the elution profile was monitored via radioactivity detection, and the retention times of observed radiopeaks (tR,AMSEC) were determined via semi-automated peak integration. By means of calibration, retention times were translated into a ligand-specific raw apparent molecular weight (MWapp,raw) as a parameter to assess the extent of HSA binding (for calculation, see Equation (S6) in the Supplementary Materials). rhPSMA-7.3 served as an internal standard during AMSEC studies and was co-evaluated whenever new data were collected to assess the reproducibility of the method (n = 14).
For reference purposes, conventional SEC runs of HSA (100 µL, 3 mg/mL) and acetone (100 µL, 2% in PBS pH 7.4) with PBS (pH 7.4) as a mobile phase were executed. The retention time of HSA (tR,HSA) corresponded to the maximal MWapp,raw, theoretically observable in AMSEC runs in the case of continuous binding of a radioligand to HSA (equivalent to 100% HSA binding). The retention time of acetone (tR,acetone) served as a reference for a ligand with no interaction with HSA in AMSEC runs (equivalent to 0% HSA binding) and an actual physical molecular weight below the column fractionation range (this was the case for all investigated radioligands).
MWapp,raw values determined as described in Section 3.3.1. were normalized in order to account for ligand-specific influences on experimentally determined retention times and to establish quantitative comparability of the obtained MWapp,norm. values. The normalization was based on a SEC run (referred to as blank run) of a radioligand executed in analogy to the AMSEC run but using PBS (pH 7.4) without HSA as a mobile phase. The determined retention time tR,blank, together with the retention time tR,AMSEC from the AMSEC run, tR,HSA, and tR,acetone determined in Section 3.3.1, were used to calculate a normalized retention time tR,norm. for every radioligand (for formulae and details on the calculation, see Section 2. Results and Discussion). […]

[2] = Calculated glomerular sieving coefficients (GSCcalc) from MWapp,norm.; conditions: from MWapp,norm. via sigmoidal fit of MW vs GSC of 12 human plasma proteins
Description: Therefore, when comparing the MWapp,norm. of different radioligands, not only their relative difference but also the absolute values of MWapp,norm. are of importance. […] These GSCcalc determined for all the PSMA radioligands (Table 2, Figure 5) inherently account for the exponential nature of the relationship between their albumin-mediated MWapp,norm. and MW-dependent GF and could, therefore, be a useful parameter to estimate differences in blood clearance by means of GF. The GSC is defined as the ratio of a compound’s concentration in the glomerular filtrate to that in the blood; thus, a GSC of 1 represents unhindered filtration through the capillary membrane in the glomerulus, while a lower GSC corresponds to a restricted filtration and, thus, a prolonged circulatory half-life. […] As an example, a GSCcalc of 0.408 was determined for rhPSMA-7.3, while an almost three-fold smaller GSCcalc of 0.138 was determined for rhPSMA-7.4. […] This would constitute a dramatic physiological effect that, in its extent, could not be predicted only based on subtle differences in molecular structure and other conventionally determined in vitro parameters. We, therefore, believe that the MWapp,norm. and GSCcalc obtained by AMSEC could be important parameters that, already at the preclinical stage of development, could help in the selection of promising therapeutic radioligands with pharmacokinetic profiles suitable for patient application.
A sigmoidal fit of molecular weights (MWs, in kDa) and corresponding glomerular sieving coefficients (GSCs) of 12 human plasma proteins (data taken from Norden et al.) was executed using OriginPro software. A dose-response model based on Equation (6) was applied:(6) GSC=A1+A2−A1/1+10^(LOGx0−MW)·p.
The values of bottom asymptote A1 and top asymptote A2 were set to 4.2∙10^−5 (GSC of IgG, data taken from Norden et al.) and 1 (equaling complete sieving), respectively. Curve fitting gave the center parameter LOGx0 = 19.36833 and the Hill slope p = −0.12108. GSCcalc values were calculated via implementation of fitting parameters and the experimentally determined MWapp,norm. in Equation (6).

[3] = design: method as in PMID 35086894; conditions: head-to-head with four isomers of rhPSMA-7 and rhPSMA-10.2; cited from earlier work
[4] = Blank SEC run of radioligand (PBS pH 7.4 without HSA); type: physicochemical; conditions: PBS pH 7.4 without HSA
Description: To validate this hypothesis, blank runs (PBS pH 7.4 as mobile phase) of the radioligands on the SEC column were performed. The resulting retention times were termed tR,blank and represent the ligand-specific retention time that would correspond to 0% HSA binding in the AMSEC experiment. […] We concluded that unspecific electrostatic interactions between the highly negatively charged radioligand and the agarose/dextran-based matrix of the superdex column are present and lead to an elution prior to the expected cut-off volume. Consequently, apart from the radioligand’s binding to HSA in the AMSEC run, the unspecific interactions with the column matrix contribute to the determined MWapp,raw, thus hampering its informative value. […]
MWapp,raw values determined as described in Section 3.3.1. were normalized in order to account for ligand-specific influences on experimentally determined retention times and to establish quantitative comparability of the obtained MWapp,norm. values. […] The determined retention time tR,blank, together with the retention time tR,AMSEC from the AMSEC run, tR,HSA, and tR,acetone determined in Section 3.3.1, were used to calculate a normalized retention time tR,norm. for every radioligand (for formulae and details on the calculation, see Section 2. Results and Discussion). […]

[5] = design: method as in PMID 34531260; conditions: 177Lu-labeled, intrapatient comparison vs PSMA-I&T; cited from earlier work
[6] = design: method as in PMID 26985056; conditions: 177Lu-labeled; cited from earlier work
[7] = design: method as in PMID 30105912, PMID 29684274; conditions: 177Lu-labeled, mice; cited from earlier work

Compound	tR,AMSEC (retention time in AMSEC run) [1]	Retention factor k [1]	MWapp,raw (raw apparent molecular weight) [1]	MWapp,norm. (normalized apparent molecular weight) [1]	tR,norm. (normalized retention time) [1]	MWapp,norm. higher than that of the stereoisomer ([1]; rhPSMA-7.2 vs rhPSMA-7.1, rhPSMA-10.1 vs rhPSMA-10.2)	GSCcalc (calculated glomerular sieving coefficient) [2]	blood clearance in mice [3]	mean MWapp,raw ([1]; mean ± SD, n = 14)	MW mathematically corresponding to tR,blank [4]	tumor dose relative to PSMA-I&T [5]	blood clearance [6]	therapeutic efficacy compared to PSMA-617 [7]
CC(C)(C)[Si](F)(c1ccc(C(=O)NC[C@@H](NC(=O)CN2CCN(CC(=O)[O-])CCN(CC(=O)[O-])CCN(CC(=O)[O-])CC2)C(=O)N[C@H](CCCCNC(=O)CCC(=O)NCCC[C@@H](NC(=O)CC[C@H](NC(=O)N[C@@H](CCC(=O)O)C(=O)O)C(=O)O)C(=O)O)C(=O)O)cc1)C(C)(C)C.[177Lu+3] [rhPSMA-10.1]	15.410 min	0.616	25.3 kDa	17.2 kDa	16.789 min	30%	0.644	fast blood clearance					
CC(C)(C)[Si](F)(c1ccc(C(=O)NC[C@@H](NC(=O)CC[C@@H](C(=O)O)N2CCN(CC(=O)[O-])CCN(CC(=O)[O-])CCN(CC(=O)[O-])CC2)C(=O)N[C@H](CCCCNC(=O)CCC(=O)NCCC[C@@H](NC(=O)CC[C@H](NC(=O)N[C@@H](CCC(=O)O)C(=O)O)C(=O)O)C(=O)O)C(=O)O)cc1)C(C)(C)C.[177Lu+3] [rhPSMA-7.3]	14.722 min and 14.722 ^3 min	0.667 ^1	30.6 ^3 kDa	20.7 kDa and 20.7 ^1 kDa	16.125 ^1 min		0.408		30.6 kDa	6.0 kDa	2.4 fold		
O=C(O)CC[C@H](NC(=O)N[C@@H](CCCCNC(=O)[C@H](Cc1ccc2ccccc2c1)NC(=O)[C@H]1CC[C@H](CNC(=O)CN2CCN(CC(=O)O)CCN(CC(=O)O)CCN(CC(=O)O)CC2)CC1)C(=O)O)C(=O)O (177Lu complex, metal not drawn) [PSMA-617, reference compound]	17.586 min	0.447	13.8 kDa	9.4 kDa	18.988 min		0.942					rapid, bi-phasic blood clearance	
Cc1ccc(CCCC(=O)NCCCC[C@H](NC(=O)CN2CCN(CC(=O)O)CCN(CC(=O)O)CCN(CC(=O)O)CC2)C(=O)NCC2CCC(C(=O)N[C@@H](Cc3ccc4ccccc4c3)C(=O)NCCCC[C@H](NC(=O)N[C@@H](CCC(=O)O)C(=O)O)C(=O)O)CC2)cc1 (stereo partly shown) (177Lu complex, metal not drawn) [PSMA-ALB-56]													superior therapeutic efficacy
